Entries after “also recorded” stand apart in the source; their conditions may differ.
Key:
[1] = General assessment of polymorph solubility and stability to water/humidity; format: physicochemical
[2] = Water content / hygroscopicity of polymorphs; format: physicochemical
[3] = Mechanical grinding of Form A, XRPD analysis; format: physicochemical; settings: ground for 24 hours
Description: Form A (50.4 mg) was ground for 24 hours. The product was recovered and analysed by XRPD to determine if any phase changes had occurred.

[4] = Competitive suspension equilibration of Form A and Form D in anhydrous acetonitrile; format: physicochemical; settings: versus Form D, 20° C. or 40° C., 96 hours
Description: Form A (50 mg, 1 wt.) and Form D (amounts see Table 16) were charged to a vial and anhydrous acetonitrile (1000 μl, 20 vol.) was added. The vials were stirred at 20° C. or 40° C.for 96 hours.

[5] = for Limit solubilities after 48 h at 20° C.; measured by Q 1H NMR: 4-aminoindacene (level of hydrolytic precursor measured in solution): 50 mg/ml
Description: (§1) Crystalline 1-ethyl-N-((1,2,3,5,6,7-hexahydro-s-indacen-4-yl)carbamoyl)piperidine-4-sulfonamide salts (50 mg, 1 wt.) or crystalline 1-ethyl-N-((1,2,3,5,6,7-hexahydro-s-indacen-4-yl)carbamoyl)piperidine-4-sulfonamide free acid (as a control) (50 mg, 1 wt.) were stirred in purified water (1000 μl, 20 vol.) at 20° C. Limit solubilities (mg/ml) were determined after 48 hours at 20° C. measured by Q ^1H NMR (measured against an internal standard, 2,3,5,6-tetrachloronitrobenzene).

[6] = Solubility determinations: limit solubility in purified water by Q 1H NMR
Description: as §1

| SMILES | Limit solubilities after 48 h at 20° C.; measured by Q 1H NMR: Free acid form equivalent [5] [mg/mL] | Limit solubilities after 48 h at 20° C.; measured by Q 1H NMR: 4-aminoindacene (level of hydrolytic precursor measured in solution) [5] [mg/mL] | other results |
| --- | --- | --- | --- |
| CCN1CCC(S(=O)(=O)NC(=O)Nc2c3c(cc4c2CCC4)CCC3)CC1.[K] [Form A, 1-Ethyl-N-((1,2,3,5,6,7-hexahydro-s-indacen-4-yl)carbamoyl)piperidine-4-sulfonamide Monopotassium Form A] | – | – | Solubility (qualitative) [1]: good solubility; Hygroscopicity [2]: hygroscopic; Non-assimilated water observed ([2]; depends on preparation and storage conditions): up to 3%; Phase change after grinding (XRPD) [3]: no significant change of polymorphic form; also recorded: stable to prolonged grinding conditions; Thermodynamic stability of polymorphic form [4]: more thermodynamically stable polymorphic form; also recorded: thermodynamically stable |
| CCN1CCC(S(=O)(=O)NC(=O)Nc2c3c(cc4c2CCC4)CCC3)CC1 [Form 3J, 1-ethyl-N-((1,2,3,5,6,7-hexahydro-s-indacen-4-yl)carbamoyl)piperidine-4-sulfonamide] | 0.0 | 0.1 | – |
| CCN1CCC(S(=O)(=O)NC(=O)Nc2c3c(cc4c2CCC4)CCC3)CC1 [Form 3A, 1-ethyl-N-((1,2,3,5,6,7-hexahydro-s-indacen-4-yl)carbamoyl)piperidine-4-sulfonamide] | 38.0 | 0.0 | – |
| CCN1CCC(S(=O)(=O)NC(=O)Nc2c3c(cc4c2CCC4)CCC3)CC1 [Form 3E, 1-ethyl-N-((1,2,3,5,6,7-hexahydro-s-indacen-4-yl)carbamoyl)piperidine-4-sulfonamide] | 3.3 | 0.8 | – |
| CCN1CCC(S(=O)(=O)NC(=O)Nc2c3c(cc4c2CCC4)CCC3)CC1 [Form 3G, 1-ethyl-N-((1,2,3,5,6,7-hexahydro-s-indacen-4-yl)carbamoyl)piperidine-4-sulfonamide] | 1.5 | 0.5 | – |
| CCN1CCC(S(=O)(=O)NC(=O)Nc2c3c(cc4c2CCC4)CCC3)CC1 [Form 3H, 1-ethyl-N-((1,2,3,5,6,7-hexahydro-s-indacen-4-yl)carbamoyl)piperidine-4-sulfonamide] | 0.6 | 0.0 | – |
| CCN1CCC(S(=O)(=O)NC(=O)Nc2c3c(cc4c2CCC4)CCC3)CC1 [Form 3C, 1-ethyl-N-((1,2,3,5,6,7-hexahydro-s-indacen-4-yl)carbamoyl)piperidine-4-sulfonamide] | 4.5 | 2.6 | – |
| CCN1CCC(S(=O)(=O)NC(=O)Nc2c3c(cc4c2CCC4)CCC3)CC1 [Form 3I, 1-ethyl-N-((1,2,3,5,6,7-hexahydro-s-indacen-4-yl)carbamoyl)piperidine-4-sulfonamide] | 0.3 | 0.0 | – |
| CCN1CCC(S(=O)(=O)NC(=O)Nc2c3c(cc4c2CCC4)CCC3)CC1 [Form 3F, 1-ethyl-N-((1,2,3,5,6,7-hexahydro-s-indacen-4-yl)carbamoyl)piperidine-4-sulfonamide] | 2.1 | 0.8 | – |
| CCN1CCC(S(=O)(=O)NC(=O)Nc2c3c(cc4c2CCC4)CCC3)CC1 [Form 3D, 1-ethyl-N-((1,2,3,5,6,7-hexahydro-s-indacen-4-yl)carbamoyl)piperidine-4-sulfonamide] | – | – | solubility at 48 h ([6]; purified water, 20 °C, water, thermodynamic from solid, Limit solubilities after 48 h at 20° C., measured by Q 1H NMR: Free acid form equivalent, 50 mg in purified water 1000 μl (20 vol.), 20° C., 48 h): 3900 µg/mL; Observation at 18 hours ([6]; stirred in purified water (20 vol.) at 20° C., 18 hours): suspension |
| CCN1CCC(S(=O)(=O)NC(=O)Nc2c3c(cc4c2CCC4)CCC3)CC1.[K] [Form D, 1-Ethyl-N-((1,2,3,5,6,7-hexahydro-s-indacen-4-yl)carbamoyl)piperidine-4-sulfonamide Monopotassium Form D] | – | – | Stability in the presence of water ([1]; water as solvent or co-solvent or humidity (such as >30% RH at 25° C.)): stable in the presence of water |
| CCN1CCC(S(=O)(=O)NC(=O)Nc2c3c(cc4c2CCC4)CCC3)CC1 [Form 3B, 1-ethyl-N-((1,2,3,5,6,7-hexahydro-s-indacen-4-yl)carbamoyl)piperidine-4-sulfonamide] | 6.3 | 0.0 | – |
